According to PMC11992225, “Antibacterial compounds against non-growing and intracellular bacteria” (npj Antimicrobials and Resistance, 2025):
pEC50: −log10 of the molar value. ≈ marks a conversion by molar mass, not a printed value. Where “and” joins values, the source holds several entries; their conditions need not be identical. Equal entries are not always repeated. Where two headings read alike, the source gives them in different places.

How the values were obtained:
[1] = tested on: non-growing S. aureus DSM2569; test: Dose-dependent killing analysis (CFU spot-plating) of stationary-phase S. aureus;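 also: drug concentration in µM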; assay type: cell-based, Staphylococcus aureus; conditions: S. aureus, vs 9,097 before treatment
Description: To determine the spectrum of activity of the compounds that were effective against non-growing UPEC, we further assessed their efficacy against the well-characterized Gram-negative and Gram-positive reference strains P. aeruginosa DSM1117 and S. aureus DSM2569, respectively. The cultures were grown and treated for 24 h in 1:4 CA-MHB (pH 7.4). […].
For survival analysis, bacteria were cultivated as described for the dose–response dilution-regrowth assay. Assays with UPEC were conducted at the CBCS screening facility using 96-well plates with a 200 μl sample volume, and compounds were dispensed using the Echo® (Labcyte) system. P. aeruginosa and S. aureus samples were treated according to the protocol used for the dilution-regrowth experiments. Treated samples were serially diluted 10-fold in PBS, and 10 μl drops were spot-plated onto rectangular LB agar plates using either a Beckman NXP robot (for UPEC) or an Integra VIAFLO96 electronic pipette (for P. aeruginosa and S. aureus). The LB agar plates were incubated overnight at 37 °C and scanned. Colonies were counted at the spots of the lowest dilution where individual colonies could be accurately distinguished. Each colony was manually marked on a separate image layer using the GNU Image Manipulation Program, and counted using NIST’s Integrated Colony Enumerator (NICE 1.4) software. The experiments were performed in three biological replicates.

non-growing UPEC CFT073 [2] = test: Dilution-regrowth assay (screen, hit validation, dose-response) on stationary-phase UPEC; assay type: cell-based, Escherichia coli; conditions: Escherichia coli, E. coli, regrowth delay of non-growing bacteria, 24 h treatment, OD600 6 h after 2500-fold dilution, read-out: EC50
Procedure, shortened: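 Regrowth (OD600 after 6 h, 37 °C) of diluted non-growing CFT073, following 24 h compound treatment of 24 h stationary cultures, defines activity relative to untreated control. Screen at 20 µM, validation at 20, 10, 5 µM (duplicates), dose–response in three biological replicates fitted by five-parameter logistic.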

S. aureus DSM2569 = test: MIC, standard microdilution assay, growing S. aureus; assay type: cell-based, Staphylococcus aureus; conditions: Staphylococcus aureus, DSM2569; S. aureus; CA-MHB pH 7.4; read-out: MIC (μM) CA-MHB
Procedure, shortened: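 MICs come from microdilution in CA-MHB/40 mM HEPES pH 7.4 for the UPEC, Pseudomonas and Staphylococcus strains, and in TSB for Shigella. UPEC also tested in LPM/30 mM MES pH 5.5.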

non-growing UPEC CFT073 [3] = test: Dose-dependent killing analysis (CFU spot-plating) of stationary-phase UPEC; assay type: cell-based, Escherichia coli
Procedure, shortened: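 Non-growing (stationary-phase) UPEC CFT073 treated with compounds in 96-well format at 200 μl, then 10-fold serially diluted in PBS and 10 μl spots plated on LB agar. Plates incubated overnight at 37 °C; colonies counted at lowest resolvable dilution to give CFU. Three biological replicates.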

[4] = tested on: non-growing P. aeruginosa DSM1117; test: Dose-dependent killing analysis (CFU spot-plating) of stationary-phase P. aeruginosa; assay type: cell-based, Pseudomonas aeruginosa; conditions: P. aeruginosa; for log10(CFU/ml) of treated nongrowing bacteria (single replicates): before treatment 8.887
Procedure, shortened: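 Stationary-phase P. aeruginosa DSM1117 treated for 24 h in 1:4 CA-MHB, pH 7.4, across compound doses. Survivors counted after 10-fold PBS dilution, spot-plating on LB agar and overnight growth at 37 °C; three biological replicates.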

Q: Which results are given for `CN1CCN(c2cc3c(cc2F)c(=O)c(C(=O)O)cn3-c2ccc(F)cc2)CC1` [Difloxacin]?
A: average Δlog10(CFU/ml) (killing) ([1]; drug conc 0.1): 0.032 log10(CFU/ml); average Δlog10(CFU/ml) (killing) ([1]; drug conc 0.5): 0.171 log10(CFU/ml); average Δlog10(CFU/ml) (killing) ([1]; drug conc 2.5): 0.107 log10(CFU/ml); average Δlog10(CFU/ml) (killing) ([1]; drug conc 10): 0.435 log10(CFU/ml); pEC50 (non-growing UPEC CFT073 [2]; LPM pH 5.5): 5.00; pEC50 (non-growing UPEC CFT073 [2]; pH 7.4, 1:4 CA-MHB): 5.19; MIC (S. aureus DSM2569): 1 µM (≈ 0.399 µg/mL)

Q: Which results are given for `N[C@@H]1[C@H]2CN(c3nc4c(cc3F)c(=O)c(C(=O)O)cn4-c3ccc(F)cc3F)C[C@@H]12` [Trovafloxacin]?
A: pEC50 (non-growing UPEC CFT073 [2]; LPM pH 5.5): 5.29; pEC50 (non-growing UPEC CFT073 [2]; pH 7.4, 1:4 CA-MHB): 5.90; killing, average Δlog10(CFU/ml) (non-growing UPEC CFT073 [3]; E. coli in 1:4 CA-MHB (pH 7.4), drug concentration 0.25): 0.343 log10(CFU/ml); log10(CFU/ml) of treated nongrowing bacteria (single replicates) (non-growing UPEC CFT073 [3]; E. coli in 1:4 CA-MHB (pH 7.4), drug concentration 0.25, before treatment 8.977): 9.041 log10(CFU/ml) and 8.447 log10(CFU/ml) and 8.415 log10(CFU/ml); killing, average Δlog10(CFU/ml) (non-growing UPEC CFT073 [3]; E. coli in 1:4 CA-MHB (pH 7.4), drug concentration 0.5): 0.539 log10(CFU/ml); log10(CFU/ml) of treated nongrowing bacteria (single replicates) (non-growing UPEC CFT073 [3]; E. coli in 1:4 CA-MHB (pH 7.4), drug concentration 0.5, before treatment 8.977): 8.699 log10(CFU/ml) and 8.362 log10(CFU/ml) and 8.255 log10(CFU/ml); killing, average Δlog10(CFU/ml) (non-growing UPEC CFT073 [3]; E. coli in 1:4 CA-MHB (pH 7.4), drug concentration 1): 0.839 log10(CFU/ml); log10(CFU/ml) of treated nongrowing bacteria (single replicates) (non-growing UPEC CFT073 [3]; E. coli in 1:4 CA-MHB (pH 7.4), drug concentration 1, before treatment 8.977): 8.255 log10(CFU/ml) and 8.204 log10(CFU/ml) and 7.954 log10(CFU/ml); killing, average Δlog10(CFU/ml) (non-growing UPEC CFT073 [3]; E. coli in 1:4 CA-MHB (pH 7.4), drug concentration 2.5): 1.866 log10(CFU/ml); log10(CFU/ml) of treated nongrowing bacteria (single replicates) (non-growing UPEC CFT073 [3]; E. coli in 1:4 CA-MHB (pH 7.4), drug concentration 2.5, before treatment 8.977): 7.255 log10(CFU/ml) and 6.903 log10(CFU/ml) and 7.176 log10(CFU/ml); killing, average Δlog10(CFU/ml) (non-growing UPEC CFT073 [3]; E. coli in 1:4 CA-MHB (pH 7.4), drug concentration 5): 2.103 log10(CFU/ml); log10(CFU/ml) of treated nongrowing bacteria (single replicates) (non-growing UPEC CFT073 [3]; E. coli in 1:4 CA-MHB (pH 7.4), drug concentration 5, before treatment 8.977): 7.146 log10(CFU/ml) and 6.699 log10(CFU/ml) and 6.778 log10(CFU/ml); killing, average Δlog10(CFU/ml) (non-growing UPEC CFT073 [3]; E. coli in 1:4 CA-MHB (pH 7.4), drug concentration 10): 2.608 log10(CFU/ml); log10(CFU/ml) of treated nongrowing bacteria (single replicates) (non-growing UPEC CFT073 [3]; E. coli in 1:4 CA-MHB (pH 7.4), drug concentration 10, before treatment 8.977): 6.462 log10(CFU/ml) and 6.322 log10(CFU/ml) (2×); killing, average Δlog10(CFU/ml) (non-growing UPEC CFT073 [3]; E. coli in LPM (pH 5.5), drug concentration 0.25): 0.094 log10(CFU/ml); log10(CFU/ml) of treated nongrowing bacteria (single replicates) (non-growing UPEC CFT073 [3]; E. coli in LPM (pH 5.5), drug concentration 0.25, before treatment 7.350): 7.146 log10(CFU/ml) and 6.544 log10(CFU/ml) and 8.079 log10(CFU/ml); killing, average Δlog10(CFU/ml) (non-growing UPEC CFT073 [3]; E. coli in LPM (pH 5.5), drug concentration 0.5): 0.009 log10(CFU/ml); log10(CFU/ml) of treated nongrowing bacteria (single replicates) (non-growing UPEC CFT073 [3]; E. coli in LPM (pH 5.5), drug concentration 0.5, before treatment 7.350): 7.146 log10(CFU/ml) and 6.732 log10(CFU/ml) and 8.146 log10(CFU/ml); killing, average Δlog10(CFU/ml) (non-growing UPEC CFT073 [3]; E. coli in LPM (pH 5.5), drug concentration 1): 0.00468 log10(CFU/ml); log10(CFU/ml) of treated nongrowing bacteria (single replicates) (non-growing UPEC CFT073 [3]; E. coli in LPM (pH 5.5), drug concentration 1, before treatment 7.350): 7.255 log10(CFU/ml) and 6.740 log10(CFU/ml) and 8.041 log10(CFU/ml); killing, average Δlog10(CFU/ml) (non-growing UPEC CFT073 [3]; E. coli in LPM (pH 5.5), drug concentration 2.5): 0.225 log10(CFU/ml); log10(CFU/ml) of treated nongrowing bacteria (single replicates) (non-growing UPEC CFT073 [3]; E. coli in LPM (pH 5.5), drug concentration 2.5, before treatment 7.350): 7.230 log10(CFU/ml) and 6.447 log10(CFU/ml) and 7.699 log10(CFU/ml); killing, average Δlog10(CFU/ml) (non-growing UPEC CFT073 [3]; E. coli in LPM (pH 5.5), drug concentration 5): 0.336 log10(CFU/ml); log10(CFU/ml) of treated nongrowing bacteria (single replicates) (non-growing UPEC CFT073 [3]; E. coli in LPM (pH 5.5), drug concentration 5, before treatment 7.350): 6.699 log10(CFU/ml) and 6.763 log10(CFU/ml) and 7.580 log10(CFU/ml); killing, average Δlog10(CFU/ml) (non-growing UPEC CFT073 [3]; E. coli in LPM (pH 5.5), drug concentration 10): 0.963 log10(CFU/ml); log10(CFU/ml) of treated nongrowing bacteria (single replicates) (non-growing UPEC CFT073 [3]; E. coli in LPM (pH 5.5), drug concentration 10, before treatment 7.350): 6.146 log10(CFU/ml) and 6.415 log10(CFU/ml) and 6.602 log10(CFU/ml); killing, average Δlog10(CFU/ml) ([4]; drug concentration 0.1): 0.236 log10(CFU/ml); log10(CFU/ml) of treated nongrowing bacteria (single replicates) ([4]; drug concentration 0.1): 8.699 log10(CFU/ml) and 8.954 log10(CFU/ml) and 8.301 log10(CFU/ml); killing, average Δlog10(CFU/ml) ([4]; drug concentration 0.5): 0.717 log10(CFU/ml); log10(CFU/ml) of treated nongrowing bacteria (single replicates) ([4]; drug concentration 0.5): 7.954 log10(CFU/ml) (2×) and 8.602 log10(CFU/ml); killing, average Δlog10(CFU/ml) ([4]; drug concentration 2.5): 1.077 log10(CFU/ml); log10(CFU/ml) of treated nongrowing bacteria (single replicates) ([4]; drug concentration 2.5): 7.778 log10(CFU/ml) and 7.954 log10(CFU/ml) and 7.699 log10(CFU/ml); killing, average Δlog10(CFU/ml) ([4]; drug concentration 10): 1.687 log10(CFU/ml); log10(CFU/ml) of treated nongrowing bacteria (single replicates) ([4]; drug concentration 10): 7.301 log10(CFU/ml) (2×) and 7.000 log10(CFU/ml); MIC (S. aureus DSM2569): 0.125 µM (≈ 0.052 µg/mL)
